In article PMC10908623, “X-ray structure and characterization of a probiotic Lactobacillus rhamnosus Probio-M9 L-rhamnose isomerase” (Applied Microbiology and Biotechnology, 2024):

Legend:
[1] = biological target: T1, LrL-RhI (L. rhamnosus Probio-M9 L-rhamnose isomerase) (Lacticaseibacillus rhamnosus, UniProt A0A171J5T1); experiment: X-ray crystal structure of the complex (soaking), […] Å; type: binding; settings: 30% (w/v) D-allose soak; Mn2+; crystals at pH 6.5; catalytic site; also a surface site
T1 construct: gene rhaA; full length, 426 residues, 48707 Da; synthesized gene in pQE60, C-terminal His-tag kept; E. coli JM109; homotetramer
T1 sequence (A0A171J5T1 1-426): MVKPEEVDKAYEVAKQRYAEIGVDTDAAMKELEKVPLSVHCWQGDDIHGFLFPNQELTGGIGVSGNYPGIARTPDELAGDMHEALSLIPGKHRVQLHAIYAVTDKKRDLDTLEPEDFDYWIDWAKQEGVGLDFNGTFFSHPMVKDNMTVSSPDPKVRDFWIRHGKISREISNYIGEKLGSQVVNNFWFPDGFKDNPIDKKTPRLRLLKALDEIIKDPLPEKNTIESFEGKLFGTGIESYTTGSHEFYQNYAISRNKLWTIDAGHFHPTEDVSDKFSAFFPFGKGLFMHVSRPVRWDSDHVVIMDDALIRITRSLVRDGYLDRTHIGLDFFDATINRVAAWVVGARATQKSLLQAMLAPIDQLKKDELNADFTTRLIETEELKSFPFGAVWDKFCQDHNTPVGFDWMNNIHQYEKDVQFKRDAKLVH

[2] = biological target: T1, LrL-RhI (L. rhamnosus Probio-M9 L-rhamnose isomerase); experiment: as above; type: binding; settings: 30% (w/v) D-allulose soak; Mn2+; crystals at pH 6.5; catalytic site; also a surface site
[3] = biological target: the molecule itself; experiment: crystal structure; sitting-drop vapor diffusion at 20 C, 0.1 M MES pH 6.5, 15% PEG550MME; LrL-RhI alone and crystals soaked in 30% (w/v) L-rhamnose, D-allulose or D-allose; space group P212121, four molecules in the asymmetric unit

## OC[C@H]1OC(O)[C@H](O)[C@H](O)[C@@H]1O (stereo partly drawn) [D-allose]
[1]
  X-ray crystal structure of the complex (soaking), 1.71 Å: The bound D-allose exhibits a pyranose form and appears to be β-D-allopyranose

## OC[C@]1(O)OC[C@@H](O)[C@@H](O)[C@H]1O [D-allulose]
[2]
  X-ray crystal structure of the complex (soaking), 1.73 Å: The bound D-allulose shows a ring-opened structure.

B1: L-rhamnose isomerase from Lactobacillus rhamnosus Probio-M9 (enzyme, UniProt A0A171J5T1 1-426, looked up)
chain: MVKPEEVDKAYEVAKQRYAEIGVDTDAAMKELEKVPLSVHCWQGDDIHGFLFPNQELTGGIGVSGNYPGIARTPDELAGDMHEALSLIPGKHRVQLHAIYAVTDKKRDLDTLEPEDFDYWIDWAKQEGVGLDFNGTFFSHPMVKDNMTVSSPDPKVRDFWIRHGKISREISNYIGEKLGSQVVNNFWFPDGFKDNPIDKKTPRLRLLKALDEIIKDPLPEKNTIESFEGKLFGTGIESYTTGSHEFYQNYAISRNKLWTIDAGHFHPTEDVSDKFSAFFPFGKGLFMHVSRPVRWDSDHVVIMDDALIRITRSLVRDGYLDRTHIGLDFFDATINRVAAWVVGARATQKSLLQAMLAPIDQLKKDELNADFTTRLIETEELKSFPFGAVWDKFCQDHNTPVGFDWMNNIHQYEKDVQFKRDAKLVH
notes: L-rhamnose isomerase (putative LrL-RhI) of Lactobacillus rhamnosus Probio-M9, 426 amino acid residues, 48707 Da; also called LrL-RhI; L-RhI; not shown: His-tag, C-terminal, kept
[3]
  stoichiometry N: 4
